Results as given in PubChem BioAssay AID296 (DTP/NCI, 2004).
Values joined by “and” are separate entries in the source; they are usually repeats but may differ in a detail not shown here. Identical values can stand only once. Records with an inconclusive call do not appear.

Test system: MX-1 breast xenograft, nude mice, tumor weight T/C
Assay: NCI In Vivo Anticancer Drug Screen. Data for tumor model Human Mammary Carcinoma MX-1 Xenograft (intrarenal inoculation) in NU/NU Swiss (nude) mice
Conditions: endpoint: mean tumor weight change, higher = larger tumour
In short: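 Mice carrying the implanted tumor receive either test agent or vehicle. Tumor size or survival is then recorded for both groups. Results are stated as the treated-to-control quotient.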

[1] = dose: 12.5 mg/kg/injection, schedule: Q01DX010 (sc), vehicle: saline
[2] = dose: 25.0 mg/kg/injection, schedule: Q01DX010 (sc), vehicle: saline
[3] = dose: 75.0 mg/kg/injection, schedule: Q04DX003 (sc), vehicle: saline
[4] = dose: 300.0 mg/kg/injection, schedule: Q04DX003 (sc), vehicle: saline with Tween-80
[5] = dose: 600.0 mg/kg/injection, schedule: Q04DX003 (sc), vehicle: saline with Tween-80
[6] = dose: 1200.0 mg/kg/injection, schedule: Q04DX003 (sc), vehicle: saline with Tween-80
[7] = dose: 150.0 mg/kg/injection, schedule: Q04DX003 (sc), vehicle: saline with Tween-80
[8] = dose: 100.0 mg/kg/injection, schedule: Q01DX010 (sc), vehicle: suspension in saline
[9] = dose: 200.0 mg/kg/injection, schedule: Q01DX010 (sc), vehicle: suspension in saline
[10] = dose: 300.0 mg/kg/injection, schedule: Q04DX003 (sc), vehicle: Klucel (hydroxypropylcellulose) (HPC)
[11] = dose: 600.0 mg/kg/injection, schedule: Q04DX003 (sc), vehicle: Klucel (hydroxypropylcellulose) (HPC)
[12] = dose: 1200.0 mg/kg/injection, schedule: Q04DX003 (sc), vehicle: Klucel (hydroxypropylcellulose) (HPC)
[13] = dose: 2400.0 mg/kg/injection, schedule: Q04DX003 (sc), vehicle: Klucel (hydroxypropylcellulose) (HPC)

Structure (SMILES): NC1=NCN(C2OC(CO)C(O)C2O)C(=O)N1 (configuration not stated)
- T/C [1]: 86 % of control
- T/C [2]: 32 % of control and 42 % of control
- T/C (dose: 25.0 mg/kg/injection, schedule: Q04DX003 (sc), vehicle: saline): 34 % of control
- T/C (dose: 50.0 mg/kg/injection, schedule: Q01DX010 (sc), vehicle: saline): 3 % of control and 4 % of control
- T/C [3]: 55 % of control
- T/C (dose: 100.0 mg/kg/injection, schedule: Q01DX010 (sc), vehicle: saline): 6 % of control
- T/C (dose: 100.0 mg/kg/injection, schedule: Q04DX003 (sc), vehicle: saline): 14 % of control and 30 % of control
- T/C (dose: 200.0 mg/kg/injection, schedule: Q04DX003 (sc), vehicle: saline): 8 % of control
- T/C (dose: 400.0 mg/kg/injection, schedule: Q04DX003 (sc), vehicle: saline): 2 % of control

Structure (SMILES): O=C1SC(c2ccccc2)=S=C1c1ccccc1
- T/C [4]: 102 % of control
- T/C [5]: 78 % of control
- T/C [6]: 109 % of control
- T/C (dose: 2400.0 mg/kg/injection, schedule: Q04DX003 (sc), vehicle: saline with Tween-80): 48 % of control

Structure (SMILES): c1ccc([P+](c2ccccc2)(c2ccccc2)c2ccccc2)cc1
- T/C (dose: 5.0 mg/kg/injection, schedule: Q04DX003 (sc), vehicle: saline): 80 % of control
- T/C (dose: 10.0 mg/kg/injection, schedule: Q04DX003 (sc), vehicle: saline): 69 % of control
- T/C (dose: 20.0 mg/kg/injection, schedule: Q04DX003 (sc), vehicle: saline): 61 % of control

Structure (SMILES): COc1ccc(OC)c(/C=C/c2ccnc3ccccc23)c1
- T/C [7]: 96 % of control
- T/C [4]: 91 % of control
- T/C [5]: 96 % of control
- T/C [6]: 96 % of control

Structure (SMILES): NC(C(=O)O)c1ccc(CBr)cc1 (configuration not stated)
- T/C (dose: 200.0 mg/kg/injection, schedule: Q04DX003 (sc), vehicle: acid diluted with saline): 61 % of control
- T/C (dose: 400.0 mg/kg/injection, schedule: Q04DX003 (sc), vehicle: acid diluted with saline): 92 % of control
- T/C (dose: 800.0 mg/kg/injection, schedule: Q04DX003 (sc), vehicle: acid diluted with saline): 73 % of control
- T/C (dose: 1600.0 mg/kg/injection, schedule: Q04DX003 (sc), vehicle: acid diluted with saline): 106 % of control

Structure (SMILES): O=C(O)C1CC1.[Ag]
- T/C (dose: 75.0 mg/kg/injection, schedule: Q04DX003 (sc), vehicle: saline with Tween-80): 120 % of control
- T/C [7]: 80 % of control
- T/C [4]: 98 % of control

Structure (SMILES): CN(C)C(=O)c1cccc(COc2ccc(N3C(N)=NC(N)=NC3(C)C)cc2Cl)c1
- T/C (dose: 6.25 mg/kg/injection, schedule: Q01DX010 (sc), vehicle: saline): 104 % of control
- T/C [1]: 118 % of control
- T/C [2]: 49 % of control

Structure (SMILES): CCOC(=O)C(CC(C)C)NC(=O)C(Cc1ccc(N(CCCl)CCCl)cc1)NC(C)=O (configuration not stated)
- T/C (dose: 37.5 mg/kg/injection, schedule: Q04DX003 (sc), vehicle: saline with Tween-80): 50 % of control
- T/C [5]: -97 % of control and -96 % of control

Structure (SMILES): O=c1n[n+]([O-])ccn1C1OC(CO)C(O)C1O (configuration not stated)
- T/C [8]: 56 % of control
- T/C [9]: 91 % of control
- T/C (dose: 400.0 mg/kg/injection, schedule: Q01DX010 (sc), vehicle: suspension in saline): 86 % of control

Structure (SMILES): Oc1ccccc1C=NCCC[N-]CCCN=Cc1ccccc1O.[Co]
- T/C (dose: 25.0 mg/kg/injection, schedule: Q01DX010 (sc), vehicle: suspension in saline): 85 % of control
- T/C (dose: 50.0 mg/kg/injection, schedule: Q01DX010 (sc), vehicle: suspension in saline): 93 % of control
- T/C [8]: 40 % of control
- T/C [9]: 31 % of control

Structure (SMILES): OCC1OC(n2cnc3c(NO)ncnc32)C(O)C1O (configuration not stated)
- T/C [10]: 65 % of control
- T/C [11]: 70 % of control
- T/C [12]: 100 % of control
- T/C [13]: 82 % of control

Structure (SMILES): [O-][n+]1c(CN2CCCCC2)nc2cccc3c2c1-c1ccccc1-3
- T/C [10]: 94 % of control
- T/C [11]: 102 % of control
- T/C [12]: 105 % of control
- T/C [13]: 70 % of control

Structure (SMILES): O=C1CC2(C(=O)N1CN1CCCCC1)c1ccccc1-c1ccccc12
- T/C (dose: 200.0 mg/kg/injection, schedule: Q04DX003 (sc), vehicle: Klucel (hydroxypropylcellulose) (HPC)): 79 % of control
- T/C (dose: 400.0 mg/kg/injection, schedule: Q04DX003 (sc), vehicle: Klucel (hydroxypropylcellulose) (HPC)): 71 % of control
- T/C (dose: 800.0 mg/kg/injection, schedule: Q04DX003 (sc), vehicle: Klucel (hydroxypropylcellulose) (HPC)): 72 % of control

Structure (SMILES): N#Cc1cn(C2OC(CO)C(O)C2O)c2ncnc(N)c12 (configuration not stated)
- T/C (dose: 0.5 mg/kg/injection, schedule: Q01DX010 (sc), vehicle: saline): 172 % of control

Structure (SMILES): NCc1cc(O)c(O)c(O)c1
- T/C (dose: 150.0 mg/kg/injection, schedule: Q04DX003 (ip), vehicle: saline): 115 % of control
- T/C (dose: 300.0 mg/kg/injection, schedule: Q04DX003 (ip), vehicle: saline): 91 % of control
- T/C (dose: 600.0 mg/kg/injection, schedule: Q04DX003 (ip), vehicle: saline): 88 % of control

Structure (SMILES): N[C@H](C(=O)O)[C@@H]1CC(Cl)=NO1
- T/C (dose: 4.0 mg/kg/injection, schedule: Q01DX010 (sc), vehicle: suspension in saline): -87 % of control
- T/C (dose: 4.0 mg/kg/injection, schedule: Q02DX005 (sc), vehicle: saline): -33 % of control
- T/C (dose: 4.0 mg/kg/injection, schedule: Q04DX003 (sc), vehicle: saline): 52 % of control
- T/C (dose: 8.0 mg/kg/injection, schedule: Q01DX010 (sc), vehicle: saline): -100 % of control and -89 % of control and -76 % of control
- T/C (dose: 8.0 mg/kg/injection, schedule: Q01DX010 (sc), vehicle: suspension in saline): -86 % of control
- T/C (dose: 8.0 mg/kg/injection, schedule: Q02DX005 (sc), vehicle: saline): -59 % of control
- T/C (dose: 8.0 mg/kg/injection, schedule: Q04DX003 (sc), vehicle: saline): 25 % of control
- T/C (dose: 16.0 mg/kg/injection, schedule: Q01DX010 (sc), vehicle: suspension in saline): -82 % of control
- T/C (dose: 16.0 mg/kg/injection, schedule: Q02DX005 (sc), vehicle: saline): -31 % of control
- T/C (dose: 16.0 mg/kg/injection, schedule: Q04DX003 (sc), vehicle: saline): 7 % of control
- T/C (dose: 32.0 mg/kg/injection, schedule: Q01DX010 (sc), vehicle: suspension in saline): -90 % of control
- T/C (dose: 32.0 mg/kg/injection, schedule: Q04DX003 (sc), vehicle: saline): 5 % of control

Structure (SMILES): C1=CCOCOC1
- T/C [7]: 71 % of control
- T/C [4]: 70 % of control

Structure (SMILES): CS(=O)(=O)OCCCNCCCOS(C)(=O)=O
- T/C (dose: 18.75 mg/kg/injection, schedule: Q04DX003 (sc), vehicle: saline): 61 % of control
- T/C [3]: 6 % of control and 7 % of control
- T/C (dose: 150.0 mg/kg/injection, schedule: Q04DX003 (sc), vehicle: saline): 1 % of control

Structure (SMILES): CCOC(C)C(/C=N/NC(N)=S)=NNC(N)=S (configuration not stated)
- T/C (dose: 100.0 mg/kg/injection, schedule: Q01DX010 (sc), vehicle: saline with Tween-80): 167 % of control
- T/C (dose: 200.0 mg/kg/injection, schedule: Q01DX010 (sc), vehicle: saline with Tween-80): 123 % of control
- T/C (dose: 800.0 mg/kg/injection, schedule: Q01DX010 (sc), vehicle: saline with Tween-80): 96 % of control

Structure (SMILES): NC(=O)c1cc(Cl)nc2nc(Cl)nc(N)c12
- T/C (dose: 150.0 mg/kg/injection, schedule: Q04DX003 (ip), vehicle: saline with Tween-80): 112 % of control
- T/C (dose: 300.0 mg/kg/injection, schedule: Q04DX003 (ip), vehicle: saline with Tween-80): 108 % of control
- T/C (dose: 600.0 mg/kg/injection, schedule: Q04DX003 (ip), vehicle: saline with Tween-80): 90 % of control
- T/C (dose: 1200.0 mg/kg/injection, schedule: Q04DX003 (ip), vehicle: saline with Tween-80): 93 % of control

Structure (SMILES): OC1CCCC2CCC[N-]C12.OC1CCCC2CCC[N-]C12.[Mn+2] (configuration not stated)
- T/C [10]: 87 % of control
- T/C [11]: 108 % of control
- T/C [12]: 65 % of control
- T/C [13]: 73 % of control

Structure (SMILES): CC12CCC3C(CCC4CC(OC(=O)Cc5ccc(N(CCCl)CCCl)cc5)CCC43C)C1CCC(=O)N2 (configuration not stated)
- T/C (dose: 25.0 mg/kg/injection, schedule: Q04DX003 (sc), vehicle: saline with Tween-80): 3 % of control
- T/C (dose: 400.0 mg/kg/injection, schedule: Q04DX003 (sc), vehicle: saline with Tween-80): -82 % of control

Structure (SMILES): C[PH+](C)C.C[PH+](C)C.[Au]
- T/C (dose: 5.0 mg/kg/injection, schedule: Q04DX003 (sc), vehicle: suspension in saline): 157 % of control
- T/C (dose: 10.0 mg/kg/injection, schedule: Q04DX003 (sc), vehicle: suspension in saline): 156 % of control
- T/C (dose: 20.0 mg/kg/injection, schedule: Q04DX003 (sc), vehicle: suspension in saline): 160 % of control
